Results as given in patent US9949964B2, “Tesofensine compositions” (Saniona A/S, priority 2016, dated 2018).

Columns and labels:
[1] = Drug excipient compatibility study, chemical stability of binary mixtures of tesofensine and excipients; format: physicochemical
From the text: A compatibility study investigating the chemical stability of binary mixtures of tesofensine and pharmaceutically acceptable excipients has been conducted.

[2] = Dissolution tests / dissolution profile; format: physicochemical
Method: The active ingredient dissolves from the coated tablets within 30 minutes. FIGS. 1, 2 and 3 show dissolution profiles for tesofensine compositions B and C with a dose strength of 0.25 mg, 0.5 mg and 1.0 mg.

[3] = Solubility of the active ingredient in granulating liquid; format: physicochemical; conditions: ethanol/mixtures compared to pure water or ethanol
From the text: Microcrystalline cellulose also was compatible with the active ingredient. Hydroxypropylcellulose was selected as binder due to its compatibility with the active ingredient. The amount of binder was adequate to provide sufficient resistance to crushing and plasticity of the granules. Crosscarmelllose sodium was selected as disintegrant as it is an effective disintegrant and is compatible with the active ingredient. The amount of croscarmellose sodium was sufficient to provide the desired disintegration. The amount of magnesium stearate selected was sufficient to avoid sticking to tableting tooling during compression. Ethanol was selected as co-solvent in the granulating liquid as ethanol evaporates easily for improved drying properties of the granulate.

[4] = cited from earlier work

O.OC[C@H]1O[C@@H](O[C@H]2[C@H](O)[C@@H](O)C(O)O[C@@H]2CO)[C@H](O)[C@@H](O)[C@H]1O (stereo partly drawn) [lactose, lactose monohydrate]
Compatibility of excipient with tesofensine [1]: compatible

magnesium stearate
Compatibility of excipient with tesofensine [1]: Incompatibility | Decomposition of tesofensine with excipient [1]: the extent of decomposition was low

CCOC[C@H]1C2CCC(C[C@@H]1c1ccc(Cl)c(Cl)c1)N2C (stereo partly drawn) [tesofensine, (3S,4R)-3-(3,4-dichlorophenyl)-4-(ethoxymethyl)-8-methyl-8-azabicyclo[3.2.1]octane]
Solubility [2]: readily soluble | Solubility of the active ingredient [3]: increased | in-vivo half-life [4]: in the range of days
